Here are results for one compound from patent US20260224533A1, “CRYSTALLINE NANOPARTICLES COMPRISING ENZALUTAMIDE” (HELM PHARMACEUTICALS GMBH, priority 2023, published 2026).

The conditions of data set [1]: cited from earlier work.
Data set [2] is described as follows: Kinetic solubility of Enzalutamide in simulated fluids. Format: physicochemical. Particulars: kinetic from dmso stock, 37° C. From the text: Preferably, the content of the amorphous nanosized Enzalutamide in the slurry or suspension is at least 10 times higher, more preferably at least 50 times, still more preferably at least 100 times higher, even more preferably at least 500 times higher than its solubility in the liquid, preferably aqueous solution, comprising the one or more polymers and/or copolymers to form the suspension or the slurry. Accordingly, the amount of Enzalutamide amorphous nanoparticles provided in step (a) that is needed depends on its solubility. The solubility can be measured by any method known in the art. […] A decent slurry can thus be produced when the slurry or suspension comprises e.g. 5 mg of the amorphous nanoparticles provided in step (a) in 1 mL of the slurry or suspension.

Converted amounts (≈) assume the structure as drawn.

For `CNC(=O)c1ccc(N2C(=S)N(c3ccc(C#N)c(C(F)(F)F)c3)C(=O)C2(C)C)cc1F` [Enzalutamide], the solubility in water result in data set [1] is “insoluble”. For the same compound, the values for the solubility (kinetic) in data set [2] (Fasted State Simulated Intestinal Fluid (FaSSIF)) and in data set [2] (Simulated Gastric Fluid (SGF)) were approximately 74 µg/mL (≈ 159 µM) and approximately 50 µg/mL (≈ 108 µM), respectively.

By kinetic solubility is commonly meant the concentration staying in solution when a stock, usually in DMSO, is diluted into the medium.
